Patent US20050171169A1, “Combination chemotherapy for helminth infections” (priority 2004, published 2005)

Experiments:
[1] = tested on: E. multilocularis metacestodes; assay: Secondary infection with E. multilocularis metacestodes, chemotherapy starting at two months post infection (Example 2); assay type: in vivo, Echinococcus multilocularis; details: Balb/c mice; treatment initiated 2 months p.i., daily for 35 days; vs CMC control (4.3±0.9 g)
Protocol: E. multilocularis metacestodes (isolate IM280) were maintained by serial transplantation passages through intraperitoneal (i.p.) injection in gerbils (Meriones unguiculatus). Animals were sacrificed at four to ten weeks p.i, and the parasite material was removed from the peritoneal cavity under aseptic conditions, placed into Hanks balanced salt solution (HBSS), and washed several times. Vesicle suspensions were prepared as described in Hemphill, A., and B. Gottstein. 1995. Immunology and morphology studies on the proliferation of in vitro cultivated Echinococcus multilocularis metacestodes. Parasitol. Res. 81: 605-614. Vesicles were washed once in HBSS, and the number of intact metacestodes in 50 ml HBSS was determined microscopically. […]
(§1) For assessments of secondary infections, parasite tissue was carefully removed from the peritoneal cavity, and the parasite weight was determined as described in: Dai, W. J., and B. Gottstein. […]
(§2) For serological and lymphocyte proliferation assays, blood was taken from euthanized mice by heart puncture, and total IgG-, as well as IgG1- and IgG2a-isotype levels against crude E. multilocularis extract (Faub-antigen) and vesicle fluid antigen, were determined according to: Dai, W. J., A. Hemphill, A. Waldvogel, K. Ingold, P. Deplazes, H. Mossmann, and B. Gottstein. […]

[2] = mice and humans, literature; cited from earlier work
[3] = Single-dose pharmacokinetic study, serum levels of TIZ, TIZ-gluc and ABZSO (Example 4); assay type: in vivo; details: non-infected Balb/c mice; single dose 1 mg ABZ or 3 mg/1 mg NTZ/ABZ
Protocol: A total of 120 6-week old non-infected Balb/c mice were divided into three treatment groups: group 1 (NTZ—30 mice), group 2 (ABZ—30 mice), group 3 (NTZ/ABZ—60 mice). They received a single dose of 3 mg NTZ (group 1), 1 mg ABZ (group 2) and 3 mg/1 mg of NTZ/ABZ (group 3) in a volume of 100 μl suspended in 0.5% CMC. At defined time points following inoculation, (0, 1, 2, 4, 6, 8, 12, 24 and 48 h), blood samples were obtained from three mice/group, and blood levels of tizoxanide (TIZ), tizoxanide-glucuronide (TIZ-gluc) and ABZSO were assayed.
TIZ and Tiz-gluc were extracted from mouse serum samples using protein precipitation with acetonitrile. The supernatant was evaporated and reconstituted in injection solvent before injection. Chromatographic separation was achieved on a C18 column (5 pm 70×2 mm). Detection was by a mass spectrometer with an ion spray ionization source. Negative ions were detected in multiple reaction monitoring mode (Q1=264 m/z and Q3=216.9 m/z for TIZ, and Q1=439.9 m/z and Q3=263.9 m/z for TIZ-gluc). The lower limits of quantitation were 0.05 μg/ml and 0.2 μg/ml for TIZ and TIZ-gluc, respectively. […]

[4] = tested on: E. multilocularis metacestodes; assay: Secondary infection with E. multilocularis metacestodes, chemotherapy starting at the timepoint of infection (Example 1); assay type: in vivo, Echinococcus multilocularis; details: Balb/c mice, i.p. 20 metacestodes; daily intragastric treatment from day of infection for 35 days; necropsy day 36; CMC group 0.23±0.05 g
Protocol: E. multilocularis metacestodes (isolate IM280) were maintained by serial transplantation passages through intraperitoneal (i.p.) injection in gerbils (Meriones unguiculatus). Animals were sacrificed at four to ten weeks p.i, and the parasite material was removed from the peritoneal cavity under aseptic conditions, placed into Hanks balanced salt solution (HBSS), and washed several times. Vesicle suspensions were prepared as described in Hemphill, A., and B. Gottstein. 1995. Immunology and morphology studies on the proliferation of in vitro cultivated Echinococcus multilocularis metacestodes. Parasitol. Res. 81: 605-614. Vesicles were washed once in HBSS, and the number of intact metacestodes in 50 ml HBSS was determined microscopically. The metacestode suspension was adjusted to 20 intact vesicles/[…], and was used for infection experiments immediately.
Six week old Balb/c mice were housed in a temperature-controlled light-cycle room with food and water ad libitum. The mice were separated into experimental groups of 10 animals each. Drug suspensions (30 mg/ml NTZ, 10 mg/ml ABZ, and 30 mg NTZ plus 10 mg ABZ/ml, respectively) were prepared in carboxymethylcellulose (CMC) 0.5% (w/v) in water. […]
as §1

[5] = tested on: E. multilocularis metacestode tissue; assay: Histology and transmission electron microscopy of metacestode tissue from treated mice (Example 5); assay type: in vivo, Echinococcus multilocularis; details: for Ultrastructural alterations of metacestode tissue (TEM): tissue from treated infected mice vs CMC-control; for Histology of metacestode tissue: tissue from treated infected mice vs control
Protocol: For histological and transmission electron microscopy (TEM) analysis, tissue samples were fixed in 3% paraformaldehyde/1% glutaraldehyde in 100 mM sodium cacodylate buffer (pH 7.2) for 24 h at 4° C., and postfixed in 2% OsO4 in cacodylate buffer for 4 h at room temperature. The samples were then processed and embedded in Epon 812 epoxy resin as described previously in: Hemphill, A., and S. L. Croft. 1997. Electron microscopy in Parasitology. In: p. 227-268. M. Rogan (ed), Analytical Parasitology, Springer Verlag, Heidelberg. Sections of […] in thickness were used for histological examination, and ultrathin sections 80-100 nm for transmission electron microscopy. Sections were loaded onto 300-mesh copper grids, and were contrasted with uranyl acetate and lead citrate as described previously in: Hemphill, A., and S. L. Croft. 1997. Electron microscopy in Parasitology. In: p. 227-268. M. Rogan (ed), Analytical Parasitology, Springer Verlag, Heidelberg. Specimens were viewed on a Phillips 300 transmission electron microscope operating at 60 kV.
Because it was not possible to investigate alterations of the actual parasite tissue on the germinal layer using histology, transmission electron microscopy was performed on sections obtained from the same tissue blocks. For evaluating the ultrastructural changes occurring during drug treatments, it is important to note that the process of tissue damage was not uniform, as it progressed at different rates in different metacestode vesicles. However, within a single metacestode, damage was rather homogenous. Therefore, a large number of different metacestodes, and as a consequence, different areas of a tissue block, were investigated in order to show a complete picture of the tissue alterations induced by ABZ, NTZ, and NTZ/ABZ-treatments.

[6] = Oral absorption of NTZ (general statement)
E. multilocularis eggs = assay: Primary infection with E. multilocularis eggs, chemotherapy starting at two months post infection (Example 3); assay type: in vivo, Echinococcus multilocularis; details: Balb/c mice, 2000 eggs intragastric; NTZ from 2 months p.i., daily for 35 days; infection control 5 lesions/mouse
Text: Infective E. multilocularis eggs were isolated from fox intestinal tissue as described (Pater, C., V. Muller, S. Harraga, M. Liance, V. Godot, J. P. Carbillet, D. Meillet, T. Romig, and D. A. Vuitton. 1998). Intestinal and systemic humoral immunological events in the susceptible Balb/C mouse strain after oral administration of Echinococcus multilocularis eggs. Parasite Immunol. 20: 623-9). The infectivity of this batch of eggs was pre-determined by titration-infection experiments in mice, and an infection dose of 2000 eggs was used.
Six week old Balb/c mice were housed in a temperature-controlled light-cycle room with food and water ad libitum. The mice were separated into experimental groups of 10 animals each. […]
For analysis of primary infection, the entire liver was removed, and lesion numbers were determined as described: Siles-Lucas, M., M. Merli, U. Mackenstedt and B. Gottstein 2003. […]
as §2

[7] = Solubility of NTZ in solvents; assay type: physicochemical

SMILES | Reduction in parasite weight (in words) [1] | Time after which ABZSO disappears following ABZ uptake [2] [h] | ABZSO serum concentration at 12 h [3] | Parasite weight [4] [g] | Ultrastructural alterations of metacestode tissue (TEM) [5] | Histology of metacestode tissue [5] | Oral absorption [6] | Number of liver lesions (means) (E. multilocularis eggs) [lesions/mouse] | solubility ([7]; DMSO, organic solvent or mixture) [µg/mL] | Solubility in acetic acid ([7]; acetic acid) | Solubility in acetone ([7]; acetone) | Solubility in chloroform ([7]; chloroform) | Solubility in dioxane ([7]; dioxane) | Solubility in ethanol ([7]; ethanol) | Solubility in ether ([7]; ether) | Solubility in methyl benzene ([7]; methyl benzene) | Solubility in pyridine ([7]; pyridine) | Solubility in water ([7]; water)
CCCSc1ccc2nc(NC(=O)OC)[nH]c2c1 [ABZ] | significant reduction in parasite weight | ≤ 10 | zero | 0.08 ± 0.01 | parasite tissue was mostly reduced to only the tegument | limited destructive effect | – | – | – | – | – | – | – | – | – | – | – | –
CC(=O)Oc1ccccc1C(=O)Nc1ncc([N+](=O)[O-])s1 [NTZ, 2-(acetolyloxy)-N-(5-nitro-2-thiazolyl)benzamide] | not statistically significant | – | – | 0.17 ± 0.05 | rather heterogeneous morphological features | limited destructive effect | easily absorbed orally | 2.2 | ≥ 2000 | poorly soluble | fairly soluble | poorly soluble | fairly soluble | poorly soluble | very poorly soluble | very poorly soluble | easily soluble | very poorly soluble
